Reference: the NIST ThermoML archive (doi:10.1021/je800529x)
± gives the expanded uncertainty stated by the source.

Conditions: Liquid, Drop weight

Q: Which results are given for O=C=O [carbon dioxide] + O?
A: interfacial tension (293.15 K, 2000 kPa): 62.4 ± 1.7 mN/m; interfacial tension (293.15 K, 4000 kPa): 43.5 ± 1.3 mN/m; interfacial tension (293.15 K, 6000 kPa): 34.9 ± 1 mN/m; interfacial tension (293.15 K, 8000 kPa): 29.1 ± 0.8 mN/m; interfacial tension (293.15 K, 12000 kPa): 25.1 ± 0.7 mN/m; interfacial tension (293.15 K, 17400 kPa): 23.2 ± 0.8 mN/m; interfacial tension (293.15 K, 27000 kPa): 18.9 ± 0.7 mN/m; interfacial tension (298.15 K, 2000 kPa): 62.1 ± 1.7 mN/m; interfacial tension (298.15 K, 4000 kPa): 45.1 ± 2.5 mN/m; interfacial tension (298.15 K, 6000 kPa): 36.2 ± 1.3 mN/m; interfacial tension (298.15 K, 8000 kPa): 30.6 ± 1.6 mN/m; interfacial tension (298.15 K, 12000 kPa): 26.5 ± 1 mN/m; interfacial tension (298.15 K, 17400 kPa): 24.9 ± 0.8 mN/m; interfacial tension (298.15 K, 27000 kPa): 21.1 ± 0.6 mN/m; interfacial tension (299.15 K, 2000 kPa): 61.8 ± 1.7 mN/m; interfacial tension (299.15 K, 4000 kPa): 45.6 ± 1.3 mN/m; interfacial tension (299.15 K, 6000 kPa): 36.5 ± 1.1 mN/m; interfacial tension (299.15 K, 8000 kPa): 30.8 ± 1.1 mN/m; interfacial tension (299.15 K, 12000 kPa): 26.9 ± 0.8 mN/m; interfacial tension (299.15 K, 17400 kPa): 25 ± 1 mN/m; interfacial tension (299.15 K, 27000 kPa): 21.3 ± 0.7 mN/m; interfacial tension (301.15 K, 2000 kPa): 62 ± 2 mN/m; interfacial tension (301.15 K, 4000 kPa): 46.1 ± 1.4 mN/m; interfacial tension (301.15 K, 6000 kPa): 37.6 ± 1.3 mN/m; interfacial tension (301.15 K, 8000 kPa): 32.8 ± 1.1 mN/m; interfacial tension (301.15 K, 12000 kPa): 27.4 ± 0.8 mN/m; interfacial tension (301.15 K, 17400 kPa): 25.8 ± 0.8 mN/m; interfacial tension (301.15 K, 27000 kPa): 22.3 ± 1.3 mN/m; interfacial tension (303.15 K, 2000 kPa): 62.1 ± 1.7 mN/m; interfacial tension (303.15 K, 4000 kPa): 48.2 ± 1.5 mN/m; interfacial tension (303.15 K, 6000 kPa): 39.7 ± 1.3 mN/m; interfacial tension (303.15 K, 8000 kPa): 33.5 ± 1.1 mN/m; interfacial tension (303.15 K, 12000 kPa): 27.7 ± 0.8 mN/m; interfacial tension (303.15 K, 17400 kPa): 26.4 ± 0.8 mN/m; interfacial tension (303.15 K, 27000 kPa): 25.7 ± 1.2 mN/m; interfacial tension (305.15 K, 2000 kPa): 62.5 ± 1.7 mN/m; interfacial tension (305.15 K, 4000 kPa): 49.1 ± 2.8 mN/m; interfacial tension (305.15 K, 6000 kPa): 40.7 ± 2.3 mN/m; interfacial tension (305.15 K, 8000 kPa): 34.8 ± 1.8 mN/m; interfacial tension (305.15 K, 12000 kPa): 28.6 ± 2.4 mN/m; interfacial tension (305.15 K, 17400 kPa): 27.4 ± 2.6 mN/m; interfacial tension (305.15 K, 27000 kPa): 26.1 ± 2.5 mN/m; interfacial tension (307.15 K, 2000 kPa): 61.5 ± 1.7 mN/m; interfacial tension (307.15 K, 4000 kPa): 38.2 ± 3.3 mN/m; interfacial tension (307.15 K, 6000 kPa): 31.5 ± 3.4 mN/m; interfacial tension (307.15 K, 8000 kPa): 27.3 ± 2.9 mN/m; interfacial tension (307.15 K, 12000 kPa): 18.5 ± 3.5 mN/m; interfacial tension (307.15 K, 17400 kPa): 16.4 ± 4 mN/m; interfacial tension (307.15 K, 27000 kPa): 16.1 ± 3.5 mN/m; interfacial tension (308.15 K, 2000 kPa): 62.1 ± 2.4 mN/m; interfacial tension (308.15 K, 4000 kPa): 39.3 ± 1.3 mN/m; interfacial tension (308.15 K, 6000 kPa): 31.9 ± 0.9 mN/m; interfacial tension (308.15 K, 8000 kPa): 27.4 ± 0.8 mN/m; interfacial tension (308.15 K, 12000 kPa): 18.6 ± 0.6 mN/m; interfacial tension (308.15 K, 17400 kPa): 16.6 ± 0.7 mN/m; interfacial tension (308.15 K, 27000 kPa): 16.3 ± 0.5 mN/m; interfacial tension (309.15 K, 2000 kPa): 64.9 ± 3.3 mN/m; interfacial tension (309.15 K, 4000 kPa): 39.6 ± 6.3 mN/m; interfacial tension (309.15 K, 6000 kPa): 32.1 ± 1.5 mN/m; interfacial tension (309.15 K, 8000 kPa): 27.5 ± 0.8 mN/m; interfacial tension (309.15 K, 12000 kPa): 19 ± 3 mN/m; interfacial tension (309.15 K, 17400 kPa): 17.3 ± 1.3 mN/m; interfacial tension (309.15 K, 27000 kPa): 16.6 ± 0.6 mN/m; interfacial tension (314.15 K, 2000 kPa): 65.2 ± 1.8 mN/m; interfacial tension (314.15 K, 4000 kPa): 42.9 ± 1.3 mN/m; interfacial tension (314.15 K, 6000 kPa): 33.2 ± 1 mN/m; interfacial tension (314.15 K, 8000 kPa): 28.5 ± 0.9 mN/m; interfacial tension (314.15 K, 12000 kPa): 19.9 ± 0.7 mN/m; interfacial tension (314.15 K, 17400 kPa): 17.8 ± 0.7 mN/m; interfacial tension (314.15 K, 27000 kPa): 16.9 ± 0.7 mN/m; interfacial tension (333.15 K, 2000 kPa): 66.6 ± 1.8 mN/m; interfacial tension (333.15 K, 4000 kPa): 52.9 ± 1.5 mN/m; interfacial tension (333.15 K, 6000 kPa): 43.1 ± 1.2 mN/m; interfacial tension (333.15 K, 8000 kPa): 37.9 ± 1.1 mN/m; interfacial tension (333.15 K, 12000 kPa): 31.2 ± 1 mN/m; interfacial tension (333.15 K, 17400 kPa): 29.4 ± 0.9 mN/m; interfacial tension (333.15 K, 27000 kPa): 28.8 ± 0.9 mN/m; interfacial tension (348.15 K, 2000 kPa): 66.9 ± 1.8 mN/m; interfacial tension (348.15 K, 4000 kPa): 53.2 ± 1.5 mN/m; interfacial tension (348.15 K, 6000 kPa): 43.6 ± 1.2 mN/m; interfacial tension (348.15 K, 8000 kPa): 38.6 ± 1.1 mN/m; interfacial tension (348.15 K, 12000 kPa): 34.5 ± 1 mN/m; interfacial tension (348.15 K, 17400 kPa): 31.5 ± 0.9 mN/m; interfacial tension (348.15 K, 27000 kPa): 29.9 ± 0.8 mN/m; interfacial tension (373.15 K, 2000 kPa): 67.7 ± 1.9 mN/m; interfacial tension (373.15 K, 4000 kPa): 57.9 ± 1.6 mN/m; interfacial tension (373.15 K, 6000 kPa): 47.5 ± 1.3 mN/m; interfacial tension (373.15 K, 8000 kPa): 41.7 ± 1.2 mN/m; interfacial tension (373.15 K, 12000 kPa): 37.6 ± 1.1 mN/m; interfacial tension (373.15 K, 17400 kPa): 32.9 ± 0.9 mN/m; interfacial tension (373.15 K, 27000 kPa): 32.1 ± 0.9 mN/m; interfacial tension (398.15 K, 2000 kPa): 68.1 ± 1.9 mN/m; interfacial tension (398.15 K, 4000 kPa): 58.9 ± 1.6 mN/m; interfacial tension (398.15 K, 6000 kPa): 50.5 ± 1.4 mN/m; interfacial tension (398.15 K, 8000 kPa): 44.6 ± 1.2 mN/m; interfacial tension (398.15 K, 12000 kPa): 39.6 ± 1.1 mN/m; interfacial tension (398.15 K, 17400 kPa): 36.1 ± 1 mN/m; interfacial tension (398.15 K, 27000 kPa): 33.2 ± 0.9 mN/m
